Data as given in patent US8163661B2, “Luminescence measurement system” (Olympus Corporation, priority 2007, dated 2012).
Like-named read-outs stand apart in the source and are kept apart here.

Columns and labels:
[1] = tested on: CBR luciferase (originating from Hikari Kometsuki); assay: Km value of CBR luciferase relative to D-luciferin and ATP (luminometer, photon count); type: biochemical; conditions: 8 mM MgSO4, 0.1M Tris-HCl pH 8.0
Method: (§1) As for the blank, the buffer described above was employed. FIG. 6 illustrates the ultraviolet/visible light absorption spectrum of […].
(§2) Then, in order to calculate the concentration of ATP, the ultraviolet/visible light absorption spectrum of ATP was measured. In this measurement, the spectrum was measured using a diluted (by 2000 times) solution (in 0.1M Citrate/0.2M Na2HPO4 buffer, pH=7.0) of ATP stock solution (about 100 mM). As for the blank, the buffer described above was employed. FIG. 7 illustrates the ultraviolet/visible light absorption spectrum of ATP.
(§3) (Experiment Method 2: Purification of Various Kinds of Luciferase)
(§4) The purification of luciferase was performed according to the following procedure after establishing a luciferase-purification system utilizing affinity chromatography.
(§5) (Procedure of Transfection of Luciferase Expression Vector to Coli Bacillus)
(§6) First of all, 0.5 μL of luciferase expression vector was introduced into 50 μL of coli bacillus (JM109(DE3)). Then, the resultant liquid was subjected to a thermostatic treatment consisting of ice-cooling for 10 minutes, heating at 42° C. for one minute and ice-cooling for two minutes. Then, 2 μL of the resultant coli bacillus solution was added to 1 mL of an SOC culture medium.
(§7) Subsequently, the resultant solution of coli bacillus/SOC culture medium mixture was subjected to shaking at 37° C. for 20 minutes and to incubation. Then, 100 μL of the resultant solution was streaked onto an LB culture medium plate (Ampicillin 100 μg/mL+) and subjected to incubation overnight at 37° C.
(§8) (Purification of Luciferase by Means of Affinity Chromatography)
(§9) Then, the coli bacillus was fractured to obtain a raw extract, from which luciferase was purified by means of affinity chromatography.
(§10) Namely, first of all, a suspension of coli bacillus was subjected to centrifugal separation at 15000 rpm for 5 minutes to recover the pellets of coli bacillus, which was then suspended in 10 mL of TBS cooled to 4° C. Subsequently, by making use of French Pressure Cell, the fungus body was fractured. […]

[2] = tested on: CBG luciferase (originating from Hikari Kometsuki); assay: Km value of CBG luciferase relative to D-luciferin and ATP (luminometer, photon count); type: biochemical; conditions: 8 mM MgSO4, 0.1M Tris-HCl pH 8.0
Method: as §1, §2, §3, §4, §5, §6, §7, §8, §9, §10

[3] = biological target: GL3 luciferase (originating from firefly) (Photinus pyralis, UniProt P08659, K549A/L550V/N119G/N50D/S548I); assay: Km value of GL3 luciferase relative to D-luciferin and ATP (luminometer, photon count); type: biochemical; conditions: read-out: Km value of GL3 relative to ATP, 10-1280 μM ATP, 1 mM D-luciferin, 8 mM MgSO4, 0.1M Tris-HCl pH 8.0
Method: as §1, §2, §3, §4, §5
as §6, with “medium. […]” for “medium.”

[4] = tested on: ELuc (Emerald Luc) luciferase (originating from Hikari Kometsuki); assay: Km value of ELuc luciferase relative to D-luciferin and ATP (luminometer, photon count); type: biochemical; conditions: 8 mM MgSO4, 0.1M Tris-HCl pH 8.0
Method: as §1, §2, §3, §4, §5, §6, §7, §8, §9
(§11) Namely, first of all, a suspension of coli bacillus was subjected to centrifugal separation at 15000 rpm for 5 minutes to recover the pellets of coli bacillus, which was then suspended in 10 mL of TBS cooled to 4° C. Subsequently, by making use of French Pressure Cell, the fungus body was fractured. The resultant fungus body-fractured liquid was subjected to centrifugal separation (15000 rpm, 10 minutes) to remove settled residues and to recover a supernatant liquid.
(§12) Subsequently, 2 mL of TBS was added to a column having 2 mL of bed volume and subjected to filtration. Then, 500 μL of a Ni-Agar suspension and 2 mL of TBS were added to the column and the TBS was allowed to gravitationally drop (column equilibration). The supernatant liquid thus recovered was added to the column and allowed to gravitationally drop. Incidentally, the operation until the drop of the supernatant liquid was completed was performed inside a refrigerator at a temperature of 4° C. […]

[5] = tested on: Yaeyama luciferase (Yaeyama Hime firefly, Luciola filiformis yayeyamana; DNA Sequence No. 1); assay: Km value of Yaeyama luciferase relative to D-luciferin and ATP (luminometer, photon count); type: biochemical; conditions: 8 mM MgSO4, 0.1M Tris-HCl pH 8.0
Method: as §1, §2, §3, §4, §5, §6, §7, §8, §9, §11, §12

[6] = tested on: intercellular ATP; conditions: apoptosis induced by STS; cited from earlier work
[7] = substrate: Nc1ncnc2c1ncn2[C@@H]1O[C@H](COP(=O)(O)OP(=O)(O)OP(=O)(O)O)[C@@H](O)[C@H]1O; assay: purified protein, by the assay type; type: biochemical, Luciola cruciata; conditions: 10-1280 μM ATP, 1 mM D-luciferin, 8 mM MgSO4, 0.1M Tris-HCl pH 8.0
Method: as §1, §2
By making use of the absorbency (259 nm, 0.359±0.004, n=10) obtained from the spectrum of FIG. 7, the concentration of the ATP stock solution was calculated (ATP: λmax=259 nm, ε=15400, pH=7.0). As a result of the calculation, the concentration of the ATP stock solution was found as being 46.6 mM. […]
Subsequently, the elute was moved 400 μL by 400 μL to a centrifugal concentration tube (SUPREC™-02, available from TaKaRa Co., Ltd. (exclusion limit molecular weight: 30,000)) and then subjected to centrifugal separation (5000 rpm, 30 minutes) until the elute was concentrated to about 100 μL. Thereafter, the absorbency of the concentrated elute was measured by means of a plate reader and the concentration of luciferase was calculated from the calibration curve which was prepared by making use of BSA. […]

[8] = substrate: O=C(O)[C@H]1CSC(c2nc3ccc(O)cc3s2)=N1; assay: purified protein, by the assay type; conditions: 5-640 μM D-luciferin, 4 mM ATP, 8 mM MgSO4, 0.1M Tris-HCl pH 8.0
[9] = Luminescence pattern measured with a luminometer (time to peak luminescence after addition of luciferin); type: biochemical
Excerpt: Further, with respect to the luminescence pattern obtained from the measurement using a luminometer also, the results obtained from the luciferase originated from Hikari Kometsuki were found different from the results obtained from the firefly-derived luciferase.
Although data are not shown herein, the results obtained from the Luciferase originated from Hikari Kometsuki were found different from the results obtained from the firefly-derived luciferase with respect also to the luminescence pattern obtained from the measurement using a luminometer.

[10] = Km value of luciferase relative to ATP (luminometer photon count, Example 2); type: biochemical
Method: (Experiment Method 4: Calculation of Km Value of Various Kind of Luciferase Relative to ATP)
Then, a 0.1M Tris-HCl (pH=8.0) solution of 100 μg/ml luciferase was prepared. The ATP solutions having the aforementioned concentrations were respectively aliquoted to a vessel having 96 wells, thus creating wells each containing 50 μl of the ATP solution.
Then, the luciferase solution was connected with a standard pump of luminometer, after which a program was prepared so as to initiate the measurement concurrent with the addition of 50 μl of the luciferase solution to each of the wells.
Subsequently, the program was started to measure the photon-count value at each ATP concentration. Incidentally, the measurement was repeated five times at each concentration of ATP.
Based on the results obtained, Lineweaver-Burk plot and Hanes-Woolf plot were prepared.

Chain of GL3 luciferase (originating from firefly) (P08659 whole entry N50D/N119G/S548I/K549A/L550V): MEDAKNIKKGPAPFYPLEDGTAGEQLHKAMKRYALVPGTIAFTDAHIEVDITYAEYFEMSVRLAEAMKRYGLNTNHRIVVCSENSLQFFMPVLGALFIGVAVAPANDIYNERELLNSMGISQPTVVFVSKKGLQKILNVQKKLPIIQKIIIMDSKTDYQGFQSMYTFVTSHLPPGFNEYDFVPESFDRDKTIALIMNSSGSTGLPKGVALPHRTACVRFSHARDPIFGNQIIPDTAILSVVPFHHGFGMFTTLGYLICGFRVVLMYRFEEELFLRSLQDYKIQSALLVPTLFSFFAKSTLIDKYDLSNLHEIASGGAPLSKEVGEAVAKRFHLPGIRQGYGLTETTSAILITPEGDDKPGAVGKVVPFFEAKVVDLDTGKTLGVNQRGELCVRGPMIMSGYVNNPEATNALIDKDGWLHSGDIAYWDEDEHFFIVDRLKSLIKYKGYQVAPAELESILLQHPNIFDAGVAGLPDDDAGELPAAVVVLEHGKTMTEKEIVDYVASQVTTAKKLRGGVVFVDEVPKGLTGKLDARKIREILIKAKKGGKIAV

Nc1ncnc2c1ncn2[C@@H]1O[C@H](COP(=O)(O)OP(=O)(O)OP(=O)(O)O)[C@@H](O)[C@H]1O [ATP]
Km ([1]; Hanes-Woolf plot, 10-1280 μM ATP, 1 mM D-luciferin, read-out: Km value of CBR relative to ATP): 130 µM | Km ([1]; Lineweaver-Burk plot, 10-1280 μM ATP, 1 mM D-luciferin, read-out: Km value of CBR relative to ATP): 110 µM | Km ([2]; Hanes-Woolf plot, 10-1280 μM ATP, 1 mM D-luciferin, read-out: Km value of CBG relative to ATP): 290 µM | Km ([3]; Hanes-Woolf plot): 200 µM | Km ([3]; Lineweaver-Burk plot): 200 µM | Km ([4]; Hanes-Woolf plot, 10-1280 μM ATP, 1 mM D-luciferin, read-out: Km value of ELuc relative to ATP): 250 µM | Km ([4]; Lineweaver-Burk plot, 10-1280 μM ATP, 1 mM D-luciferin, read-out: Km value of ELuc relative to ATP): 364 µM | Km ([5]; Hanes-Woolf plot, 10-1280 μM ATP, 1 mM D-luciferin, read-out: Km value of Yaeyama relative to ATP): 400 µM | Km ([5]; Lineweaver-Burk plot, 10-1280 μM ATP, 1 mM D-luciferin, read-out: Km value of Yaeyama relative to ATP): 400 µM

O=C(O)[C@H]1CSC(c2nc3ccc(O)cc3s2)=N1 [D-luciferin]
Km ([1]; read-out: Km value of CBR relative to D-luciferin, Lineweaver-Burk plot, 5-640 μM D-luciferin, 4 mM ATP): 36.4 µM | Km ([2]; read-out: Km value of CBG relative to D-luciferin, Hanes-Woolf plot, 5-640 μM D-luciferin, 4 mM ATP): 10.5 µM | Km ([2]; read-out: Km value of CBG relative to D-luciferin, Lineweaver-Burk plot, 5-640 μM D-luciferin, 4 mM ATP): 10.5 µM | Km ([4]; read-out: Km value of ELuc relative to D-luciferin, Hanes-Woolf plot, 5-640 μM D-luciferin, 4 mM ATP): 15 µM | Km ([4]; read-out: Km value of ELuc relative to D-luciferin, Lineweaver-Burk plot, 5-640 μM D-luciferin, 4 mM ATP): 15 µM | Km ([5]; read-out: Km value of Yaeyama relative to D-luciferin, Hanes-Woolf plot, 5-640 μM D-luciferin, 4 mM ATP): 100 µM | Km ([5]; read-out: Km value of Yaeyama relative to D-luciferin, Lineweaver-Burk plot, 5-640 μM D-luciferin, 4 mM ATP): 100 µM

CN[C@@H]1C[C@H]2O[C@@](C)([C@@H]1OC)n1c3ccccc3c3c4c(c5c6ccccc6n2c5c31)C(=O)NC4 [STS, Staurosporine]
intercellular ATP concentration at the initial stage of apoptosis [6]: caused to increase

B1: Genji luciferase (Genji firefly, Luciola cruciata) (Nipponoluciola cruciata) (protein)
chain: MENMENDENIVVGPKPFYPIEEGSAGTQLRKYMERYAKLGAIAFTNAVTGVDYSYAEYLEKSCCLGKALQNYGLVVDGRIALCSENCEEFFIPVIAGLFIGVGVAPTNEIYTLRELVHSLGISKPTIVFSSKKGLDKVITVQKTVTTIKTIVILDSKVDYRGYQCLDTFIKRNTPPGFQASSFKTVEVDRKEQVALIMNSSGSTGLPKGVQLTHENTVTRFSHARDPIYGNQVSPGTAVLTVVPFHHGFGMFTTLGYLICGFRVVMLTKFDEETFLKTLQDYKCTSVILVPTLFAILNKSELLNKYDLSNLVEIASGGAPLSKEVGEAVARRFNLPGVRQGYGLTETTSAIIITPEGDDKPGASGKVVPLFKAKVIDLDTKKSLGPNRRGEVCVKGPMLMKGYVNNPEATKELIDEEGWLHTGDIGYYDEEKHFFIVDRLKSLIKYKGYQVPPAELESVLLQHPSIFDAGVAGVPDPVAGELPGAVVVLESGKNMTEKEVMDYVASQVSNAKRLRGGVRFVDEVPKGLTGKIDGRAIREILKKPVAKM
Km ([7]; other: Hanes-Woolf plot): 500 µM | Km ([7]; other: Lineweaver-Burk plot): 500 µM | Km ([8]; other: Hanes-Woolf plot): 75.0 µM | Km ([8]; other: Lineweaver-Burk plot): 75.0 µM

B2: Yaeyama: luciferase originated from Yaeyama Hime firefly (Luciola filiformis yayeyamana), DNA sequence of Sequence No. 1 (protein)
chain: MEMEKEENVVYGPQPFYPIEAGSAGIQLHKYMHQYAQLGAIAFSNALTGVDISYQEYFDITCRLAEAMKNYGMTQEGRIALCSENCEEFFIPVVAGLYIGVGVAPTNEIYTLRELNHSLGIAEPTIVFSSRKGLPKVLEVQKNVTCIKTIVILDSKVNFGGYDCVETFIKKNVPSGFQPSSFKPMDVKNRKEHLALLMNSSGSTGLPKGVQITHEGTVTRFSHAKDPIYGNQVSPGTAILTVVPFHHGFGMFTTLGYFACGYRVVMLTKFDEELFLKTLQDYKCTSVILVPTLFGILNKSELIDKFDLSNLTEIASGGAPLAKEVGEAVARRFNLPGIRQGYGLTETTSAFIITPEGDDKPGASGKVVPLFKVKVIDLDTKKTLGVNRRGEICVKGPSLMKGYVRNPEATKEIIDDEGWMHTGDIGYYDEDEHFFIVDRLKSLIKYKGYQVPPAELESVLLQHPNIFDAGVAGVPDPEAGELPGAVVVLEKGKTMTEKQIVEYVNSQVVNHKRLRGGVRFVDEVPKGLTGKIDAKVIREILKKPQSKM
modifications: Luciola filiformis yayeyamana
time of peak luminescence intensity after the addition of luciferin [9]: 0.5 to 1 s | affinity to ATP as compared with other kinds of luciferase [10]: relatively low in affinity to ATP
